Experiments:
[1] = test system: SM and MD cartilage cultures (calf metaphalangeal joint chondrocytes); assay: Bovine cartilage cultures treated with interleukin-1β; type: cell-based; settings: 10 ng/ml for 7 days prior to harvesting
Protocol: Articular cartilage was excised separately from the superficial-middle (SM) or middle-deep (MD) layers of calf metaphalangeal joint using a sterile technique as described by Boyle et al. The cartilage slices were placed in a petri dish containing Ham's F12 and 1% antibiotics in HAT. Chondrocytes were isolated from the SM and MD extracellular matrix by sequential enzymatic digestion using proteinase (0.5%, 1 hour, 37° C.), washed three times with Ham's F12 medium and finally digested with collagenase A (0.1%, overnight, 37° C.). Teflon filter inserts (Millicell CMR, Millipore Corp., Bedford, Mass., USA) were placed into the wells of the 24 well culture dish, coated with type II collagen (0.5 mg/ml of 0.1N acetic acid), dried overnight and UV sterilized for 30 mins. The filter inserts were washed thoroughly with Ham's F12 before plating the cells. The isolated SM and MD chondrocytes were washed extensively and resuspended in Ham's F12 with 5% fetal bovine serum (FBS) and plated on the teflon inserts at a density of 3.0×10^6/cm^2. The cells were supplemented with the medium containing 20% FBS and 100 μg/ml ascorbic acid (added fresh at all times) from day 7 onwards every alternate working day. Some cartilage filter cultures were treated with 10 ng/ml interleukin-1β (Il-1β, human recombinant, Sigma) for 7 days (three changes of the Ham's F12 with 20% FBS and Il-1β) prior to harvesting. The chondrocytes were grown at 37° C., 100% humidity and 5% CO2. The chondrocyte cultures were harvested at fixed time points i.e. day 21, 35, and 56 and stored at −20° C. till the analysis day.
The untreated (controls) and Il-1β-treated SM and MD cartilage cultures were analyzed for cartilage thickness and collagen, proteoglycan, pyridinoline, deoxypyridinoline, and CM-1 content as described herein.

[2] = Storage of CM-1 calibrator at room temperature or in freezer, UV absorbance; type: physicochemical; settings: calibrator in 50% methanol, eight months; for UV absorbance at 306 nm after storage: reference calibrator 0.69 AU
Protocol: The UV absorbance of CM-1 calibrator (30 ug/ml of 50% methanol) was measured. An aliquot of CM-1 calibrator was kept on the bench top for […], and another aliquot was kept in a storage box in a −70° C. freezer for an equal length of time. The UV absorbance of CM-1 calibrator aliquot was measured after eight months of respective storage procedure.

[3] = Rehydrolysis of purified CM-1 with 6N HCl, UV absorption; type: physicochemical; settings: purified CM-1, 6N HCl, 110° C., 48 hrs
Protocol: An aliquot of purified CM-1 was lyophilized. The lyophilized CM-1 was resuspended in 7 ml of 50% HPLC grade methanol. The UV absorption of CM-1 was measured at 306 nm using a Shimatzu Spectrophotometer. The methanol was evaporated and CM-1 was rehydrolysed for 48 hrs in 6N HCl at 110° C. CM-1 was then lyophilized and resuspended in 7 ml of 50% HPLC grade methanol. The UV absorption of CM-1 was measured.

[4] = Rehydrolysis of purified CM-1 calibrator with 6N HCl for different time points; type: physicochemical; settings: 110° C.
Protocol: 100 μl of CM-1 calibrator was lyophilized, resuspended in 3.0 ml of 50% methanol and UV absorbance was measured. Five aliquots of 500 μl each were rehydrolyzed with 1000 μl 6N HCl at 110° C. for 3, 6, 12, 24 and 48 hrs. The rehydrolyzed CM-1 was lyophilized and resuspended in 500 μl of 50% methanol and UV absorbance was measured. Methanol was then evaporated and the samples were resuspended in 500 μl of the mobile phase and injected into the HPLC analytical column. The results of rehydrolysis of CM-1 were compared to the unhydrolyzed CM-1 calibrator.

[5] = Solubility of CM-1 in various solvents; type: physicochemical

Substance	glycosaminoglycan (GAG) content ([1]; SM and DM groups)	collagen content ([1]; SM and DM groups, in particular day 56)	cartilage thickness versus untreated controls ([1]; SM and MD groups)	Pyd and Dpyd content ([1]; day 35 and more so day 56)	decrease of UV absorbance at 306 nm after storage ([2]; room temperature) [%]	UV absorbance at 306 nm after storage ([2]; room temperature) [AU]	UV absorbance at 306 nm after storage ([2]; −70° C. freezer) [AU]	decrease of UV absorption at 276 nm after rehydrolysis [3] [%]	decrease of UV absorption at 306 nm after rehydrolysis [3] [%]	UV absorption at 276 nm after rehydrolysis ([3]; before treatment 1.00 (278 nm)) [AU]	UV absorption at 306 nm after rehydrolysis ([3]; before treatment 1.884) [AU]	CM-1 yield after rehydrolysis (unhydrolyzed calibrator = 100%) ([4]; 3 hrs (maintained up to 12 hrs)) [%]	CM-1 yield after rehydrolysis (unhydrolyzed calibrator = 100%) ([4]; 24 hrs) [%]	CM-1 yield after rehydrolysis (unhydrolyzed calibrator = 100%) ([4]; 48 hrs) [%]	stability when rehydrolyzed with 6N HCl ([4]; prolonged period)	solubility ([5]; chloroform)	solubility ([5]; hexane)	solubility ([5]; methanol)	solubility ([5]; water)
Il-1β: interleukin-1β, human recombinant, Sigma; used to treat cartilage filter cultures	decreased	decreased	thinner	decrease															
2,6-dimethyl-difuro-8-pyrone [CM-1]					75	0.1718	0.73	51	75	0.4865	0.469	64	19	4.5	not stable	insoluble	insoluble	highly soluble	highly soluble

— patent publication US6696578B2, “Difuropyrone derivatives” (Mount Sinai Hospital, priority 1999, dated 2004)
